This is an account of results in ChEMBL document CHEMBL1157447, “Discovery and biological evaluation of novel alpha-glucosidase inhibitors with in vivo antidiabetic effect” (2008).

Molecules are shown by their SMILES.

In assay [1] the test system is Rattus norvegicus. Description: Antidiabetic activity in po dosed Streptozotocin induced diabetic Sprague-Dawley rat assessed as decrease in serum glucose level after 120 mins. Also on record: scale not given: the % may be the effect or the level left. Format: functional.
Assay [2] relates to Rattus norvegicus. As to the kind of experiment: Antidiabetic activity in po dosed Streptozotocin induced diabetic Sprague-Dawley rat assessed as decrease in serum glucose level after 60 mins. Also on record: concentration or dose not given beside the values. Format: functional.
Another assay deals with Saccharomyces cerevisiae. As to the kind of experiment: Inhibition of alpha glucosidase from baker's yeast at 50 uM.

By inhibition is commonly meant how much of the control response was suppressed. In the case of `COc1ccc(N2C(=O)NC(=O)/C(=C\c3cccn3CCOc3cccc(C)c3)C2=O)cc1Cl`, the results for the Activity in the assay with Rattus norvegicus [1] and in the assay with Rattus norvegicus [2] were 23% and 5%, respectively. In the assay on Saccharomyces cerevisiae, this compound returned an inhibition of 88.7%.

In the assay on Saccharomyces cerevisiae, `C[C@H]1O[C@H](O[C@H]2[C@H](O)[C@@H](O)[C@@H](OC3[C@@H](CO)OC(O)[C@H](O)[C@H]3O)O[C@@H]2CO)[C@H](O)[C@@H](O)[C@@H]1N[C@H]1C=C(CO)[C@@H](O)[C@H](O)[C@H]1O` (single isomer, unassigned) displayed an inhibition of 88.1%.

For the compound `CCc1ccc(N2C(=O)NC(=O)/C(=C\c3cccn3CCOc3cccc(C)c3)C2=O)cc1`, the Activity with Rattus norvegicus [2] is 20%. Also, the inhibition with Saccharomyces cerevisiae turned out to be 86%.

On to `N#C/C(=C\Nc1cccc(F)c1)c1nc(-c2cc3ccccc3oc2=O)cs1`, for which, in the assay with Rattus norvegicus [2], the Activity was 20%. The compound also displayed an inhibition in the assay on Saccharomyces cerevisiae of 75.2%.

With `Cc1ccc(Nc2nc(N)nc(COc3cccc4cccnc34)n2)cc1`, the Activity in the assay with Rattus norvegicus [2] was determined as 20%. The inhibition with Saccharomyces cerevisiae is 78.9%.
